{"source": "patent US5637619A", "about": "“Antitumor 2-aminocarbonyl-1, 2-bis(methylsulfonyl)-1-(substituted)hydrazines” (Yale University, priority 1995, dated 1997)", "key": {"M109 lung carcinoma [1]": {"tested_on": "M109 lung carcinoma", "assay": "M109 lung carcinoma, ip implanted", "format": "in vivo, BALB/c mice", "details": "50 mg/kg/injection, q4d × 3, ip, 10% DMSO in saline; highest dose tested", "protocol": "(§1) The M5076 reticulum cell sarcoma was passaged biweekly by sc transfer of tumor fragments into C57BL/6 mice, and the M109 lung carcinoma was similarly passaged in BALB/c mice. The LX-1 human lung carcinoma was passaged sc every two to three weeks in BALB/c-background athymic (nu/nu) mice. For use in these systems, compound III was dissolved in: (a) 100% DMSO and administered by iv injection in a fixed volume of 10 microliters; or (b) DMSO diluted with saline to a final concentration of 10% DMSO and administered iv in a volume of 0.01 milliliter/g of body weight. […] Mitomycin C and cyclophosphamide were dissolved and administered in saline. BCNU and MeCCNU were dissolved in ethanol and diluted 1:9 (v/v) with water prior to administration.\nFive mice per group were employed in experiments with the B16F10 melanoma, and 8 mice per group with the M5076 sarcoma, the M109 carcinoma and the LX-1 carcinoma. […] Therapeutic results are presented in terms of: (a) increases in lifespan reflected by the relative median survival time (MST) of treated versus control groups (i.e., %T/C values), and by long-term survivors, and (b) primary tumor growth inhibition (i.e., T-C values) determined by calculating the relative median times for treated (T) and control untreated (C) mice to grow tumors of a 0.5 g size for the LX-1 carcinoma or a 1 g size for the murine neoplasms. […]"}, "M109 lung carcinoma [2]": {"tested_on": "M109 lung carcinoma", "assay": "M109 lung carcinoma, sc implanted", "format": "in vivo, BALB/c mice", "protocol": "as §1\n(§2) Five mice per group were employed in experiments with the B16F10 melanoma, and 8 mice per group with the M5076 sarcoma, the M109 carcinoma and the LX-1 carcinoma. A minimum of two dose levels per compound were included in each evaluation and drug therapy was initiated 24 h after tumor implantation for the M5076 sarcoma and M109 carcinoma. In the LX-1 experiment, tumor bearing mice were selected and sorted into treatment and control groups on day 6 post-tumor implant such that all tumor weights ranged from 50-100 mg and median tumor weights per group were reasonably similar. Therapeutic results are presented in terms of: (a) increases in lifespan reflected by the relative median survival time (MST) of treated versus control groups (i.e., %T/C values), and by long-term survivors, and (b) primary tumor growth inhibition (i.e., T-C values) determined by calculating the relative median times for treated (T) and control untreated (C) mice to grow tumors of a 0.5 g size for the LX-1 carcinoma or a 1 g size for the murine neoplasms. Tumor weights were interchangeable with tumor size on the basis of 1 mm^3 =1 mg. […] The activity criterion for tumor inhibition was a delay in tumor growth consistent with one log10 cell kill (LCK). The absolute T-C value needed to attain this level of efficacy varied from experiment to experiment and depended upon the tumor volume doubling time of the control mice in each study. Treated mice dying prior to day 10 in the ip M109 experiment, or dying before their tumors achieved 0.5 g for the LX-1 carcinoma or 1 g in size for all other sc tumor models, were considered to have died from drug toxicity. Groups of mice with more than one death due to drug toxicity were not used in the evaluation of antitumor efficacy. Statistical evaluations of data were performed using Gehan's generalized Wilcoxan test (Gehan, Biometrika, 1965, 52, 203-233).\nCompound III was also evaluated against the M109 lung carcinoma implanted subcutaneously (sc). In the initial test using this model, a dose of 50 mg/kg per injection of this compound was administered intravenously (iv) in 10% DMSO in saline every fourth day for a total of three injections. […] Mitomycin C, used as a reference drug, produced a maximum %T/C of 103 and a delay in tumor growth of 10 days (data not shown). A subsequent evaluation of compound III was performed using four different doses on a slightly different schedule, i.e., 24, 32, 48 and 64 mg/kg administered every third day for four total injections, and two vehicles, 10% DMSO in saline and 100% DMSO. […] Cyclophosphamide and mitomycin C were included as reference drugs in the last experiment. The former compound produced a maximum %T/C of 143 and a delay in tumor growth of 8.8 days, while mitomycin C produced a maximum %T/C of 134 and a T-C value of 9.3 days (data not shown). As reported earlier, compound X achieved a maximum %T/C of 136 and a maximum T-C value of 14.5 days against this tumor (Shyam, et al., J. Med. Chem., 1993, 36, 3496)."}, "[3]": {"tested_on": "M5076 reticulum cell sarcoma", "assay": "M5076 reticulum cell sarcoma, sc implanted", "format": "in vivo, C57BL/6 mice", "details": "48 mg/kg/injection, q2d × 5, iv, 100% DMSO", "protocol": "as §1, §2\nCompound III was also evaluated against the M5076 reticulum cell sarcoma implanted sc. When administered iv at a level of 48 mg/kg per injection in 100% DMSO every other day for five days, compound III cured 6 out of 8 mice and consequently, no median time (T-C value) to reach 1 gram size tumors was expressed for this group. Tumor growth in mice receiving only 100% DMSO was indistinguishable from that of untreated control animals. 1-(2-Chloroethyl)-3-(4-methylcyclohexyl)-1-nitrosourea (MeCCNU) and BCNU were included in this experiment for comparison. The former achieved a maximum %T/C of 128 and a delay in tumor growth of 33.5 days at 16 mg/kg per injection administered iv every fourth day for three total injections, while BCNU, administered iv on the same treatment schedule, produced a %T/C in excess of 157, with 2 out of 8 cures, and a T-C of >62 days (data not shown)."}, "B16F10 melanoma": {"tested_on": "B16F10 melanoma", "assay": "B16F10 melanoma, tumor growth delay in mice", "format": "in vivo, C57BL/6 mice", "details": "100% DMSO", "protocol": "B16F10 melanoma cells were grown in vitro as monolayers in minimum essential medium with Hank's salts supplemented with 10% fetal bovine serum and 1% 200 mM L-glutamine solution. Solid tumors were produced in C57BL/6 female mice 12- to 14-weeks of age by the intradermal injection in the right flank of each mouse of 0.1 mL of a cell suspension containing 10^6 B16F10 cells/mL from freshly trypsinized cultures. After 10-12 days, animals bearing approximately 100 mm^3 tumors were treated ip with compound III or IV dissolved in 100% DMSO for 6 consecutive days, and tumor volumes were measured on alternate days until reaching 1000 mm^3.\nas §2\nIn addition, both compounds III and IV were evaluated in 100% DMSO against the B16F10 melanoma implanted intradermally (id) in mice (Table III). In an initial experiment, compound IV produced a T-C of 15.5 days at a daily dosage level of 20 mg/kg administered once daily for six consecutive days beginning on day 10 post-implant. In the same experiment, using the same treatment schedule, a growth delay of 11 days was obtained with compound III. […] Thus, the aminocarbonyl component in this class of agents influences the magnitude of the antitumor effects obtained against the B16F10 melanoma."}, "[4]": {"details": "experiment a, 50 mg/kg/injection, q4d × 3, iv, 10% DMSO in saline"}, "[5]": {"details": "experiment b, 64 mg/kg/injection, q3d × 4, iv, 100% DMSO"}}, "note": "Values joined by “and” are separate entries in the source; they are usually repeats but may differ in a detail not shown here. Equal values may be shown once."}
{"smiles": "CS(=O)(=O)N(CCCl)N(C(=O)NCCCl)S(C)(=O)=O", "note": "[Compound III, 1,2-bis(methylsulfonyl)-1-(2-chloroethyl)-2-(2-chloroethyl)aminocarbonylhydrazine]", "values": [{"measurement": "%T/C (median survival time)", "setting": "M109 lung carcinoma [1]", "result": 267, "unit": "%"}, {"measurement": "lethality (in words)", "setting": "M109 lung carcinoma [2]; 48 mg/kg per injection, q3d × 4, iv, 10% DMSO in saline", "result": "excessively lethal"}, {"measurement": "antitumor effect versus 10% DMSO formulation, statistics (in words)", "setting": "M109 lung carcinoma [2]; 64 mg/kg in 100% DMSO vs best T-C in 10% DMSO in saline, p<0.01", "result": "statistically superior (p<0.01)"}, {"measurement": "treatment-associated lethalities (in words)", "setting": "M109 lung carcinoma [2]; 64 mg/kg per injection, q3d × 4, iv, 100% DMSO", "result": "without causing any treatment-associated lethalities"}, {"measurement": "%T/C (median survival time)", "setting": "M109 lung carcinoma [2]; [4]", "result": 115, "unit": "%"}, {"measurement": "T-C, delay in tumor growth", "setting": "M109 lung carcinoma [2]; [4]", "result": 8.3, "unit": "days"}, {"measurement": "activity assessment of %T/C (in words)", "setting": "M109 lung carcinoma [2]; experiment a, 50 mg/kg/injection, q4d × 3, iv, criterion T/C ≥125%", "result": "not considered to be an active result"}, {"measurement": "%T/C (median survival time), maximum", "setting": "M109 lung carcinoma [2]; experiment b, 24 mg/kg/injection, q3d × 4, iv, 10% DMSO in saline", "result": 143, "unit": "%"}, {"measurement": "T-C, maximum delay in tumor growth", "setting": "M109 lung carcinoma [2]; experiment b, 32 mg/kg/injection, q3d × 4, iv, 10% DMSO in saline", "result": 9.3, "unit": "days"}, {"measurement": "%T/C (median survival time), maximum", "setting": "M109 lung carcinoma [2]; [5]", "result": 145, "unit": "%"}, {"measurement": "T-C, delay in tumor growth", "setting": "M109 lung carcinoma [2]; [5]", "result": 17.8, "unit": "days"}, {"measurement": "%T/C (median survival time)", "setting": "[3]", "result": "> 157", "unit": "%"}, {"measurement": "Cures/Total", "setting": "[3]", "result": "6/8 and 6 out of 8"}, {"measurement": "T-C, growth delay", "setting": "B16F10 melanoma; experiment a, 20 mg/kg/injection, qd × 6 from day 10, ip, 20 mg/kg", "result": "11 days and 11.0 days"}, {"measurement": "T-C", "setting": "B16F10 melanoma; experiment b, 20 mg/kg/injection, qd × 6 from day 12, ip", "result": 5.5, "unit": "days"}, {"measurement": "T-C, growth delay", "setting": "B16F10 melanoma; experiment b, 30 mg/kg/injection, qd × 6 from day 12, ip", "result": 13.5, "unit": "days"}]}
